Biological target: T1, HIV Reverse transcriptase (RT) 66/p51 (Human immunodeficiency virus type 1 group M subtype B, UniProt P04585)
T1 construct: HIV Reverse transcriptase (RT) 66/p51; purchased Worthington
Test: RNA dependent DNA polymerase (RDDP) activity of HIV RT, 33P-TTP incorporation on polyrA-oligodT12-18, filter plate
Format: biochemical

## Cc1cn([C@H]2C[C@H](N=[N+]=[N-])[C@@H](CO)O2)c(=O)[nH]c1=O [AZT]
  IC50: < 200 nM
